In EP0077430B1, “A pharmaceutical composition for enhancing keratinogenesis and reducing facial and scalp seborrhea” (Mavi S.r.l., priority 1981, dated 1983):

What was measured:
Format in all cases: in vivo, Whistar rats
[1] = test system: rats kept on a biotin poor diet; test: Experimental test 1: skin total lipids and hair sulphur content of rats on a biotin free diet with additives
Text: According to the invention in fact the intimate distribution of the cystine within the mass of "soft" gelatin ensures a particularly favorable oral absorption, so that it is possible to reduce the doses of active substances with respect to the doses established by the prior art for the indicated pharmaceutical use. […] It is in fact known that the alimentary insufficiency of biotin induces, in the rat, the formation of a seborrhoic clinical condition, characterized by the increase of the sebaceous secretion and by the fall of hair.
In order to have a direct comparison, said rats have been successively treated, in different lots, -with diets to which was added respectively gelatin, cystine, gelatin-cystine in mechanical mixture and gelatin-cystine in soft spherules.
60 Whistar rats were employed of both sexes (30 males and 30 females) of the average weight of 150 g±9. Following the Kalopissis et al methodology (U.S. patent No. 3629452) 50 rats were kept on a biotin free diet for about 40 days until an evident seborrhoic clinical condition had developed, while the remaining 10 served as controls. After obtaining the desired clinical condition with the development of seborrhoea and loss of hair in various zones, the 50 rats were subdivided into five groups of 10 rats each and treated as follows: • 1st group: biotin free diet added with cystine; • 2nd group: biotin free diet added with gelatin; • 3rd group: biotin free diet added with cystine and gelatin in mechanical mixture; • 4th group: biotin free diet added with the mixture of gelatin/cystine melted in soft spherules; • 5th group: biotin free diet; • 6th group: control.
The diets were administered weekly in the cages of the rats in accurately weighed quantity so that the rats, kept in single cages, would ingest together with the feed, respectively: • 1st group: 84 mg per kg a week of cystine; • 2nd group: 203 mg per kg a week of gelatin from collagen; • 3rd group: 84 mg per kg a week of cystine and 203 mg per kg a week of gelatin; • 4th group: 280 mg per kg a week of the melted mixture of gelatin/cystine comprising 79.8 mg of cystine and 200.2 mg of gelatin.
After three weeks of treatment and after taking about 200 mg of hairs per rat, all the animals, included the controls, were sacrificed in a chloroform saturated environment in order to control their skin total lipids and in order to carry out possible histological and bioptic examinations. […]
The content of the total lipids was determined gravimetrically by the difference in weight of the sample before and after the extraction in a Soxhlet with acetone for 10 days and further drying out in vacuum over P205 and paraffin for 24 hours.

[2] = test system: biotin poor rats; test: Experimental test 2, lot I: composition of hair keratin (sulphur, cystine, proteins) of biotin poor rats
Text: (§1) The elective stimulating action has also been verified on rats, performed especially by the gelatin cystine, in the keratinization processes of the hairy structures, verifying the average content of sulphur and cystine of the hair of rats kept on a normal diet and respectively of rats kept on a biotin poor diet, fed respectively only gelatin, only cystine and the association of gelatin-cystine both in the form of mechanical mixture in hard capsules, and in the form melted in soft spherules.
(§2) 110 Whistar rats of both sexes were employed (55 males plus 55 females) of the average weight of 150 g±9, divided in two lots of respectively 60 (lot I) and 50 (lot II) rats each. Following the Kalopissis and Manoussos methodology already quoted in test 1, 50 rats of lot I were kept on a biotin poor diet for about 40 days until the appearance of an evident seborrhoic clinical condition was induced, while the remaining 10 served as controls. After having obtained the desired clinical condition with the appearance of seborrhoea and loss of hair in several zones, the 60 rats were divided into six groups of 10 rats each and treated as follows:
The diets prepared specifically by a specialized firm were administered weekly in the cages of the rats, in accurately weighed quantity so that the rats, kept in single cages, would ingest together with the feed, respectively:
After six weeks of treatment and after having taken about 1 gof hair per rat, all the animals included the controls were sacrificed in a chloroform saturated atmosphere.
(§3) A part of the hair (about 100 mg) of all the animals of the two groups, thoroughly washed with alcohol and ethyl ether and dried, are used for the determination of the total sulphur carried out by means of titration, according to the previously mentioned McDonald methodology.
(§4) After having hydrolyzed the hair of all the animals (about 800 mg) previously washed as already described, the quantity of cystine was determined using an autoanalyzer.
(§5) The extraction of the total keratins of the hairs was carried out using the urea-thioglycolate method as described in Gillespie J. M., Reis P. J. and Schinckel P. G. (1964) Aust. J. Biol. Sci. 17, 548.
(§6) After determining from one portion the total keratin (total proteins), the keratin fraction of high sulphur content is separated through alkylation with iodo acetate, dialysis and precipitation of the protein of low sulphur content with zinc acetate at pH 6. The total sulphur was determined on the protein fraction "rich in sulphur" according to the already mentioned McDonald methodology.

[3] = test system: normal rats, not subjected previously to a biotin poor diet; test: Experimental test 2, lot II: composition of hair keratin of normal rats fed an enriched diet; settings: 150 days of treatment
Text: as §1, §2
The 50 rats of the second lot (normal rats, not subjected previously to a biotin poor diet), divided into five groups of 10 rats each, have been fed respectively:
The quantity of the feed placed in the cages was calculated in such a way that the rats would ingest the same quantity per kg of cystin, FU gelatin or gelatin-cystine already described above.
After 150 days of treatment the rats, under ether anaesthesia, were partially depilated with a razor.
as §3, §4, §5, §6

[4] = in the biotin-poor rats, oral, P<0.05
[5] = hair of biotin poor rats, six weeks of treatment

N[C@@H](CSSC[C@H](N)C(=O)O)C(=O)O [Levo-cystine]
Total lipides % ([1]; dorsal skin, gravimetric after acetone extraction, biotin poor diet plus additive, three weeks of treatment, °=P<0.05 versus group VI (controls)): 38.1±2.987° %
increase of the total sulphur of the hair [1, 4]: about 7%
reduction of the total lipids of the skin [1, 4]: about 15%
Sulphur content (×g hair, %) ([1]; total sulphur by titration, percentage of dried weight of hair, biotin poor diet plus additive, three weeks of treatment): 2.48±0.066° %
"Sulphur rich" proteic fraction % [2, 5]: 20±1%
Sulphur contained in the "sulphur rich" proteic fraction, % [2, 5]: 3.9±0.05%
Sulphur content % [2, 5]: 2.48±0.07° %
Cystine content % ([2]; hair of biotin poor rats, six weeks of treatment, g/100 g of hairs, autoanalyzer after hydrolysis): 9.3±0.6%
Total proteins % ([2]; total keratins of hair, urea-thioglycolate extraction, biotin poor rats, six weeks): 90±1%
"Sulphur rich" keratin % [3]: 25.9±0.5° %
Cystine content % [3]: 13.8±0.6° %
Sulphur contained in the "sulphur rich keratin" % [3]: 5.1±0.2° %
Sulphur content % [3]: 3.6±0.1° %
